Assay results from ChEMBL document CHEMBL1201862, “PubChem BioAssay data set” (2004).
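Method: 48-hour compound exposure of cells in 96-well plates, five concentrations, linear interpolation of endpoints. Abbreviation: GI50, concentration required for 50% inhibition of growth.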 Calls of active or inactive are those of the source. Rule as the data show it: active = GI50 up to about 1.1 µM and inactive = higher.

How the values were obtained:
Assay in all cases: inhibition of tumour cell growth, NCI panel, 48 h
HCT-15 = test system: HCT-15
M19-MEL = test system: M19-MEL
SK-MEL-28 = test system: SK-MEL-28
COLO 205 = test system: COLO 205
EKVX = test system: EKVX
SNB-75 = test system: SNB-75
CAKI-1 = test system: CAKI-1
SF-539 = test system: SF-539
TK-10 = test system: TK-10
HCT-116 = test system: HCT-116
SN12C = test system: SN12C
RPMI-8226 = test system: RPMI-8226
U-251 = test system: U-251
MOLT-4 = test system: MOLT-4
SK-OV-3 = test system: SK-OV-3
M14 = test system: M14
DU-145 = test system: DU-145
BT-549 = test system: BT-549
MDA-MB-231 = test system: MDA-MB-231
MCF7 = test system: MCF7

Measured: GI50

C=C(C)CC(C(=O)O)c1ccc(C)cc1 (stereo not drawn)
> 100 µM: HCT-15
inactive: M19-MEL > 100 µM | SK-MEL-28 > 100 µM | COLO 205 > 100 µM | EKVX > 100 µM | SNB-75 > 100 µM | CAKI-1 > 100 µM | SF-539 > 100 µM | TK-10 > 100 µM | HCT-116 > 100 µM | SN12C > 100 µM | RPMI-8226 > 100 µM | U-251 > 100 µM

OCCCCCNc1ccnc2cc(Cl)ccc12
> 100 µM: HCT-15
inactive: MOLT-4 24.6 µM | M19-MEL > 100 µM | SK-MEL-28 > 100 µM | COLO 205 33.7 µM | EKVX 86.3 µM | SNB-75 > 100 µM | SK-OV-3 > 100 µM | M14 > 100 µM | CAKI-1 > 100 µM | SF-539 > 100 µM | HCT-116 33.7 µM | SN12C > 100 µM | RPMI-8226 31.3 µM | U-251 > 100 µM

NC(=O)/N=C1\NC(Cc2ccccc2)C(=O)N1Cc1ccccc1 (stereo not drawn)
> 100 µM: HCT-15
inactive: MOLT-4 > 100 µM | M19-MEL > 100 µM | SK-MEL-28 > 100 µM | COLO 205 > 100 µM | EKVX > 100 µM | SNB-75 89.9 µM | SK-OV-3 > 100 µM | M14 > 100 µM | SF-539 > 100 µM | TK-10 > 100 µM | HCT-116 > 100 µM | SN12C > 100 µM | RPMI-8226 > 100 µM | U-251 > 100 µM

CSC1CC2C(CC1(C)SC)C2(C)C (stereo not drawn)
51.3 µM: HCT-15
inactive: MOLT-4 22.6 µM | M19-MEL 37.2 µM | SK-MEL-28 > 100 µM | COLO 205 37.3 µM | EKVX 30.2 µM | SNB-75 23.2 µM | SK-OV-3 39.9 µM | M14 92 µM | CAKI-1 > 100 µM | SF-539 > 100 µM | TK-10 > 100 µM | RPMI-8226 24.3 µM | U-251 32.1 µM

S=C1OC2CCCC[C@H]2O1 (stereo partly drawn)
inactive: MOLT-4 > 100 µM | M19-MEL > 100 µM | SK-MEL-28 > 100 µM | COLO 205 > 100 µM | EKVX > 100 µM | SNB-75 > 100 µM | SK-OV-3 > 100 µM | M14 > 100 µM | CAKI-1 > 100 µM | SF-539 > 100 µM | TK-10 > 100 µM | HCT-116 > 100 µM | SN12C > 100 µM | RPMI-8226 > 100 µM | U-251 > 100 µM

COc1cc(-c2cc(=O)c3cc(C)c(C)c(C(=O)O)c3o2)cc(OC)c1OC
inactive: MOLT-4 > 100 µM | M19-MEL > 100 µM | SK-MEL-28 > 100 µM | COLO 205 > 100 µM | EKVX > 100 µM | SNB-75 2.32 µM | SK-OV-3 > 100 µM | M14 > 100 µM | SF-539 > 100 µM | TK-10 > 100 µM | HCT-116 > 100 µM | SN12C > 100 µM | RPMI-8226 > 100 µM | U-251 > 100 µM
> 100 µM: HCT-15

CN(C)CC1CCCC/C1=N/OC(=O)c1ccc(Cl)c(Cl)c1 (stereo not drawn)
inactive: M19-MEL > 100 µM | SK-MEL-28 > 100 µM | COLO 205 > 100 µM | EKVX > 100 µM | SNB-75 33.3 µM | SK-OV-3 > 100 µM | M14 > 100 µM | CAKI-1 > 100 µM | SF-539 > 100 µM | TK-10 > 100 µM | HCT-116 > 100 µM | SN12C > 100 µM | RPMI-8226 > 100 µM | U-251 > 100 µM
> 100 µM: HCT-15

COc1ccc(/C(=C/n2ccnc2)C(O)c2ccc(OC)c(OC)c2)cc1OC (stereo not drawn)
> 100 µM: HCT-15
inactive: MOLT-4 > 100 µM | M19-MEL > 100 µM | SK-MEL-28 > 100 µM | COLO 205 > 100 µM | SNB-75 51.9 µM | SK-OV-3 > 100 µM | M14 > 100 µM | SF-539 78 µM | TK-10 > 100 µM | SN12C > 100 µM | RPMI-8226 70.6 µM | U-251 > 100 µM

O=C(O)C(CS)Nc1c2ccccc2[n+]([O-])c2ccccc12 (stereo not drawn)
inactive: MOLT-4 > 100 µM | M19-MEL > 100 µM | SK-MEL-28 > 100 µM | COLO 205 > 100 µM | EKVX 80.4 µM | SNB-75 > 100 µM | SK-OV-3 > 100 µM | M14 > 100 µM | CAKI-1 > 100 µM | TK-10 > 100 µM | HCT-116 92 µM | SN12C > 100 µM | RPMI-8226 29.1 µM | U-251 > 100 µM
> 100 µM: HCT-15

Cc1ccc2ccc(-c3ccccc3)c3c2c1C(=O)c1ccccc1C3=O
inactive: MOLT-4 > 100 µM | M19-MEL 76.2 µM | SK-MEL-28 > 100 µM | COLO 205 > 100 µM | EKVX > 100 µM | SNB-75 18.3 µM | SK-OV-3 41.7 µM | M14 79.8 µM | SF-539 54.3 µM | TK-10 > 100 µM | HCT-116 > 100 µM | SN12C > 100 µM | RPMI-8226 > 100 µM | U-251 > 100 µM

CCCCCCCCC(=O)CCCCCCCCC(=O)O
inactive: MOLT-4 14.8 µM | M19-MEL 47.5 µM | SK-MEL-28 36.1 µM | COLO 205 21.8 µM | EKVX 28.4 µM | SNB-75 37.2 µM | SK-OV-3 > 100 µM | M14 32.1 µM | CAKI-1 34.5 µM | SF-539 19.7 µM | TK-10 33.3 µM | HCT-116 21.6 µM | SN12C 25.6 µM | RPMI-8226 16.7 µM | U-251 25.1 µM

COc1ccc(C2Oc3cc(OC)c(O)c(C)c3[C@H]2C)cc1 (stereo partly drawn)
58.9 µM: HCT-15
inactive: MOLT-4 33.3 µM | M19-MEL > 100 µM | SK-MEL-28 > 100 µM | COLO 205 > 100 µM | EKVX 26.6 µM | SNB-75 7.87 µM | SK-OV-3 > 100 µM | M14 > 100 µM | CAKI-1 > 100 µM | SF-539 > 100 µM | TK-10 > 100 µM | HCT-116 35.6 µM | RPMI-8226 > 10 µM | U-251 > 100 µM

Cn1ccc2c(c1=O)C(=O)OC2(C)C [CERPEGIN]
inactive: MOLT-4 > 100 µM | DU-145 > 100 µM | SK-MEL-28 > 100 µM | COLO 205 > 100 µM | EKVX > 100 µM | BT-549 > 100 µM | SNB-75 > 100 µM | SK-OV-3 > 100 µM | M14 > 100 µM | MDA-MB-231 > 100 µM | CAKI-1 > 100 µM | MCF7 > 100 µM | SF-539 > 100 µM | TK-10 > 100 µM | HCT-116 > 100 µM | SN12C > 100 µM | RPMI-8226 > 100 µM | U-251 > 100 µM
> 100 µM: HCT-15

C=C1C(=O)O[C@H]2[C@H]1[C@H](OC(=O)/C(C)=C\C)CC(=C)[C@@H]1[C@H](O)[C@H]3O[C@@]3(C)[C@@]12O [EUPATUNDIN]
inactive: M19-MEL > 100 µM | SK-MEL-28 > 100 µM | COLO 205 > 100 µM | EKVX > 100 µM | SNB-75 > 100 µM | SK-OV-3 > 100 µM | M14 > 100 µM | CAKI-1 > 100 µM | SF-539 > 100 µM | TK-10 > 100 µM | HCT-116 > 100 µM | SN12C > 100 µM | RPMI-8226 > 100 µM | U-251 > 100 µM
> 100 µM: HCT-15
